Test results published in ChEMBL document CHEMBL5042535, “Structure-Based Design and Synthesis of N-Substituted 3-Amino-β-Carboline Derivatives as Potent αβ-Tubulin Degradation Agents” (J Med Chem, 2022).
The source made the active and inactive calls. No cut-off for these calls is given here.

Columns and labels:
A2780S [1] = test: Cytotoxicity in human A2780S assessed as inhibition in cell growth measured after 24 hrs by MTT assay; assay type: functional, cell-based
A2780/Taxol [2] = test: Cytotoxicity in human A2780T assessed as inhibition in cell growth measured after 24 hrs by MTT assay; assay type: functional, cell-based
A549/TR = test: Cytotoxicity in human A549T assessed as inhibition in cell growth measured after 24 hrs by MTT assay; assay type: functional, cell-based
NCI/ADR-RES = test: Cytotoxicity in human NCI-ADR-RES assessed as inhibition in cell growth measured after 24 hrs by MTT assay; assay type: functional, cell-based
[3] = Drug resistance index, ratio of IC50 for human A2780S cancer cell to ratio of IC50 for human A2780T cancer cell; assay type: functional
[4] = Drug resistance index, ratio of IC50 for human A549 cancer cell to ratio of IC50 for human A549T cancer cell; assay type: functional
[5] = Drug resistance index, ratio of IC50 for human MCF7 cancer cell to ratio of IC50 for human NCI-ADR-RES cancer cell; assay type: functional
A2780S [6] = test: Effect on microtubule network in human A2780S cells assessed as bundling of microtubule fibers near nucleus at 100 nM for 24 hrs; assay type: functional, cell-based
A2780S [7] = test: Antitumor activity against human A2780S cells xenografted in mouse assessed as tumor growth inhibition at 20 mg/kg, ip; assay type: functional; conditions: read-out: TGI
A2780/Taxol [8] = test: Antitumor activity against human A2780T cells xenografted in mouse assessed as tumor growth inhibition at 10 mg/kg, iv treated 3 times a week; assay type: functional; conditions: read-out: TGI
A2780/Taxol [9] = test: Antitumor activity against human A2780T cells xenografted in mouse assessed as tumor growth inhibition at 20 mg/kg, iv treated 3 times a week; assay type: functional; conditions: read-out: TGI
A2780/Taxol [10] = test: Antitumor activity against human A2780T cells xenografted in mouse assessed as tumor growth inhibition at 40 mg/kg, iv treated 3 times a week; assay type: functional; conditions: read-out: TGI
A2780/Taxol [11] = test: Antitumor activity against mouse xenografted with human A2780T cell assessed as tumor growth inhibition at 20 mg/kg, ip; assay type: functional; conditions: read-out: TGI
HeLa [12] = test: Induction of Alpha/beta tubulin degradation in human HeLa cells pretreated with PYR-41 at 10 uM for 1 hrs followed by compound addition measured after 16 hrs by Western blot analysis; assay type: cell-based
HeLa [13] = test: Induction of Alpha/beta tubulin degradation in human HeLa cells pretreated with colchicine at 10 uM for 1 hrs by Western blot analysis; assay type: cell-based
MCF7 [14] = test: Antiproliferative activity against human MCF7 cells assessed as reduction in cell viability measured after 24 hrs by MTT assay; assay type: functional, cell-based; conditions: MCF7, 24 h
HeLa [15] = test: Antiproliferative activity against human HeLa cells assessed as reduction in cell viability measured after 24 hrs by MTT assay; assay type: functional, cell-based
Raji = test: Antiproliferative activity against human Raji cells assessed as reduction in cell viability measured after 24 hrs by MTT assay; assay type: functional, cell-based
NCI-H460 = test: Antiproliferative activity against human NCI-H460 cells assessed as reduction in cell viability measured after 24 hrs by MTT assay; assay type: functional, cell-based; conditions: NCI-H460, 24 h
A2780S [16] = test: Antiproliferative activity against human A2780S cells assessed as reduction in cell viability measured after 24 hrs by MTT assay; assay type: functional, cell-based
HeLa [17] = test: Induction of Alpha/beta tubulin degradation in human HeLa cells pretreated with colchicine at 10 uM for 1 hrs followed by compound addition measured after 16 hrs by Western blot analysis; assay type: cell-based
HeLa [18] = test: Induction of Beta tubulin degradation in human HeLa cells pretreated with MG132 at 10 uM for 1 hrs followed by compound addition measured after 16 hrs by Western blot analysis; assay type: cell-based
A549 = test: Cytotoxicity in human A549 assessed as inhibition in cell growth measured after 24 hrs by MTT assay; assay type: functional, cell-based; conditions: A549, 24 h
MCF7 [19] = test: Cytotoxicity in human MCF7 assessed as inhibition in cell growth measured after 24 hrs by MTT assay; assay type: functional, cell-based; conditions: MCF7, 24 h
[20] = Half life in rat at 5 mg/kg, iv; assay type: ADME, organism-based; conditions: in vivo
[21] = Half life in rat at 5 mg/kg, po; assay type: ADME, organism-based; conditions: in vivo
[22] = Clearance in rat at 5 mg/kg, iv; assay type: ADME, organism-based; conditions: in vivo
[23] = Clearance in rat at 5 mg/kg, po; assay type: ADME, organism-based; conditions: in vivo
[24] = Volume of distribution at steady state in rat at 5 mg/kg, iv; assay type: ADME, organism-based; conditions: in vivo, read-out: Vdss
[25] = Volume of distribution at steady state in rat at 5 mg/kg, po; assay type: ADME, organism-based; conditions: in vivo
[26] = Cmax in rat plasma at 5 mg/kg, iv; assay type: ADME, organism-based; parameters: route intravenous, dose 5 mg/kg
[27] = Cmax in rat at 5 mg/kg, po; assay type: ADME, organism-based; parameters: route oral, dose 5 mg/kg; conditions: in vivo
[28] = Oral bioavailability in rat at 5 mg/kg; assay type: ADME, organism-based; conditions: in vivo
A2780S [29] = test: Induction of cell cycle arrest in human A2780S cells assessed as accumulation at G2/M phase at 100 nM measured after 48 hrs by flow cytometry analysis relative to control; assay type: functional
A2780/Taxol [30] = test: Induction of cell cycle arrest in human A2780T cells assessed as accumulation at G2/M phase at 100 nM measured after 48 hrs by flow cytometry analysis relative to control; assay type: functional
A2780S [31] = test: Induction of cell cycle arrest in human A2780S cells assessed as accumulation at G2/M phase at 300 nM measured after 48 hrs by flow cytometry analysis relative to control; assay type: functional
A2780/Taxol [32] = test: Induction of cell cycle arrest in human A2780T cells assessed as accumulation at G2/M phase at 300 nM measured after 48 hrs by flow cytometry analysis relative to control; assay type: functional
A2780S [33] = test: Induction of apoptosis in PTX sensitive human A2780S cells at 100 to 300 nM incubated for 48 hrs by Annexin V-FITC/PI staining based flow cytometry method; assay type: functional, cell-based; conditions: dose 100-300 nM
A2780/Taxol [34] = test: Induction of apoptosis in PTX resistant human A2780T cells at 100 to 300 nM incubated for 48 hrs by Annexin V-FITC/PI staining based flow cytometry method; assay type: functional, cell-based; conditions: dose 100-300 nM
A2780S [35] = test: Induction of apoptosis in human A2780S cells assessed as late apoptotic cells level at 30 nM incubated for 48 hrs by Annexin V-FITC/PI staining based flow cytometry (reference value: 5.2%); assay type: functional
A2780S [36] = test: Induction of apoptosis in human A2780S cells assessed as late apoptotic cells level at 100 nM incubated for 48 hrs by Annexin V-FITC/PI staining based flow cytometry (reference value: 5.2%); assay type: functional
A2780S [37] = test: Induction of apoptosis in human A2780S cells assessed as late apoptotic cells level at 300 nM incubated for 48 hrs by Annexin V-FITC/PI staining based flow cytometry (reference value: 5.2%); assay type: functional
Tubulin (Homo sapiens) = Tubulin (Homo sapiens) (UniProt P68371+Q9H4B7+P0DPH7+P68366+Q13509+Q71U36+P04350+Q3ZCM7+P07437+P68363+Q9BQE3+Q6PEY2+Q13885+Q9BVA1+Q9BUF5); test: Inhibition of tubulin polymerization in human A2780S cells assessed as microtubule network polymerization at 10 to 1000 nM after 24 hrs by immunofluorescence analysis; assay type: cell-based; conditions: dose 10-1000 nM
HUVEC [38] = test: Antimigratory activity against human HUVEC cells assessed as reduction in cell migration at upto 10 nM incubated for 24 hrs by wound healing assay; assay type: functional; parameters: scale not given: the % may be the effect or the level left; conditions: dose nM <=10
HUVEC [39] = test: Antimigratory activity against human HUVEC cells assessed as reduction in cell migration at upto 10 nM incubated for 48 hrs by wound healing assay; assay type: functional; parameters: scale not given: the % may be the effect or the level left; conditions: dose nM <=10
HUVEC [40] = test: Antimigratory activity against human HUVEC cells assessed as reduction in tumor cell migration at upto 5 nM incubated for 24 hrs by wound healing assay relative to control; assay type: functional; parameters: scale not given: the % may be the effect or the level left; conditions: dose nM <=5
HUVEC [41] = test: Antimigratory activity against human HUVEC cells assessed as reduction in cell migration at upto 5 nM incubated for 48 hrs by wound healing assay relative to control; assay type: functional; parameters: scale not given: the % may be the effect or the level left; conditions: dose nM <=5
HUVEC [42] = test: Antimigratory activity against human HUVEC cells assessed as reduction in metastasis at upto 5 nM incubated for 24 hrs by wound healing assay; assay type: functional, cell-based; conditions: dose nM <=5, time 24.0 hrs
HUVEC [43] = test: Antimigratory activity against human HUVEC cells assessed as reduction in metastasis at upto 5 nM incubated for 48 hrs by wound healing assay; assay type: functional, cell-based; conditions: dose nM <=5, time 48.0 hrs
A2780S [44] = test: Antitumor activity against human A2780S cells xenografted in mouse assessed as tumor growth inhibition at 10 mg/kg, iv measured on three times in week; assay type: functional; conditions: read-out: TGI
A2780S [45] = test: Antitumor activity against human A2780S cells xenografted in mouse assessed as tumor growth inhibition at 20 mg/kg, iv measured on three times in week; assay type: functional; conditions: read-out: TGI
A2780S [46] = test: Antitumor activity against human A2780S cells xenografted in mouse assessed as tumor growth inhibition at 40 mg/kg, iv; assay type: functional; conditions: read-out: TGI
[47] = Toxicity in mouse xenografted with human A2780S cells assessed as body weight loss at 40 mg/kg, iv; assay type: organism-based; conditions: in vivo
A2780S [48] = test: Antitumor activity against mouse xenografted with human A2780S cell assessed as tumor growth inhibition at 40 mg/kg, po; assay type: functional; conditions: read-out: TGI
[49] = Toxicity in mouse xenografted with human A2780S cells assessed as body weight loss at 40 mg/kg, po; assay type: organism-based; conditions: in vivo
HeLa [50] = test: Induction of Alpha/beta tubulin degradation in human HeLa cells measured after 16 hrs by immunoblot analysis; assay type: cell-based; conditions: dose 0-50 µM
HeLa [51] = test: Induction of Beta tubulin degradation in human HeLa cells at upto 10 uM for 16 hrs by immunoblot analysis; assay type: cell-based; conditions: dose microM <=10, time 16.0 hrs
K562 = test: Induction of Beta tubulin degradation in human K562 cells at upto 10 uM for 16 hrs by immunoblot analysis; assay type: cell-based; conditions: dose microM <=10, time 16.0 hrs

CC(=O)O[C@H]1C(=O)[C@@]2(C)[C@H]([C@H](OC(=O)c3ccccc3)[C@]3(O)C[C@H](OC(=O)[C@H](O)[C@@H](NC(=O)c4ccccc4)c4ccccc4)C(C)=C1C3(C)C)[C@]1(OC(C)=O)CO[C@@H]1C[C@@H]2O [PACLITAXEL]
IC50 (A2780S [1]): 60.4 nM
IC50 (A2780/Taxol [2]): 58.9 µM
IC50 (A549/TR): 802 nM
IC50 (NCI/ADR-RES): 9.34 µM
Ratio IC50 [3]: 974.4
Ratio IC50 [4]: 33.1
Ratio IC50 [5]: 289
Activity (A2780S [6]): Active
inhibition in vivo at 20 mg/kg (A2780S [7]): 66.1%
inhibition in vivo at 10 mg/kg (A2780/Taxol [8]): 26.9%
inhibition in vivo at 20 mg/kg (A2780/Taxol [9]): 37.2%
inhibition in vivo at 40 mg/kg (A2780/Taxol [10]): 75.7%
inhibition in vivo at 20 mg/kg (A2780/Taxol [11]): 21.7%

c1cc(CNc2cc3c(cn2)[nH]c2ccccc23)cc(Oc2ccc3c(c2)OCO3)c1
Activity (HeLa [12]): Active
Activity (HeLa [13]): Active
IC50 (MCF7 [14]): 9 nM
IC50 (HeLa [15]): 5 nM
IC50 (Raji): 13 nM
IC50 (NCI-H460): 14 nM
IC50 (A2780S [16]): 8 nM
Activity (HeLa [17]): Active
Activity (HeLa [18]): Active
IC50 (A2780S [1]): 16.4 nM
IC50 (A2780/Taxol [2]): 0.0131 µM
IC50 (A549): 60.1 nM
IC50 (A549/TR): 63.8 nM
IC50 (MCF7 [19]): 11.3 nM
IC50 (NCI/ADR-RES): 0.0135 µM
Ratio IC50 [3]: 0.8
Ratio IC50 [4]: 1.1
Ratio IC50 [5]: 1.2
half-life [20]: 214 min
half-life [21]: 265 min
clearance [22]: 25.3 mL/min/kg
CL/F [23]: 84.3 mL/min/kg
Vd [24]: 8.08 L/kg
Vdss [25]: 35.26 L/kg
Cmax [26]: 189 ng/mL
Cmax [27]: 2600 ng/mL
bioavailability [28]: 30.7%
Activity (A2780S [29]): 55.1%
Activity (A2780/Taxol [30]): 72.18%
Activity (A2780S [31]): 79.54%
Activity (A2780/Taxol [32]): 72.89%
Activity (A2780S [33]): Active
Activity (A2780/Taxol [34]): Active
Activity (A2780S [35]): 3.7%
Activity (A2780S [36]): 25.2%
Activity (A2780S [37]): 30.6%
Activity (Tubulin (Homo sapiens)): inactive
Activity (HUVEC [38]): 20.8%
Activity (HUVEC [39]): 28.47%
Activity (HUVEC [40]): 76.21%
Activity (HUVEC [41]): 85.07%
Activity (HUVEC [42]): Active
Activity (HUVEC [43]): Active
inhibition in vivo at 10 mg/kg (A2780S [44]): 66.1%
inhibition in vivo at 20 mg/kg (A2780S [45]): 71.5%
inhibition in vivo at 40 mg/kg (A2780S [46]): 92.4%
Activity [47]: Non-Toxic
inhibition in vivo at 40 mg/kg (A2780S [48]): 34.9%
Activity [49]: Toxic
Activity (HeLa [50]): Active
Activity (HeLa [51]): Active
Activity (K562): Active
